Patent US11535621B2, “Heterobicyclic amides as inhibitors of CD38” (Ribon Therapeutics, Inc., priority 2019, dated 2022)

What follows are molecules tested against Human CD38 (Homo sapiens (Human), UniProt P28907) (assay: CD38 enzyme assay). Details: 2 nM CD38, NAD+ substrate, absorbance at 405 nm.
Sequence of Human CD38 (P28907 whole entry): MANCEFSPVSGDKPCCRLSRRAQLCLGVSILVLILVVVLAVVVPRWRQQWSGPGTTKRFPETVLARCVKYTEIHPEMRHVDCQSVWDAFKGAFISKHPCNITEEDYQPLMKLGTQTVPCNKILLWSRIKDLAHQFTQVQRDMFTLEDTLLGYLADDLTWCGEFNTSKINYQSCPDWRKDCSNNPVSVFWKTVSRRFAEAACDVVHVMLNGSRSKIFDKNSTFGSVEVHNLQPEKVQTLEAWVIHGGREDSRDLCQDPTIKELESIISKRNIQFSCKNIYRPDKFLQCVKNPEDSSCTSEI
Format: biochemical
How it was run: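 IC50 values come from fitting % inhibition against compound concentration with a 4-parameter logistic, or a 3-parameter fit with top/bottom fixed at 100/0 or Hill at 1. Inhibition is scaled between DMSO wells and positive-control wells treated with a quinolinone CD38 inhibitor.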
For `COCCO[C@H]1CC[C@H](NC(=O)c2nc(-n3ccnc3)nc3cc[nH]c23)CC1` [Example 7, 2-(1H-Imidazol-1-yl)-N-((1r,4r)-4-(2-methoxyethoxy)cyclohexyl)-5H-pyrrolo[3,2-d]pyrimidine-4-carboxamide], the IC50 was 10 to 100 nM. Work on `O=C(N[C@H]1CC[C@@H](NCCC(F)(F)F)CC1)c1nc(-n2ccnc2)cc2cn[nH]c12` [Example 188, 5-(1H-imidazol-1-yl)-N-((1s,4s)-4-((3,3,3-trifluoropropyl)amino)cyclohexyl)-1H-pyrazolo[3,4-c]pyridine-7-carboxamide] yielded an IC50 of 100 to 1000 nM. In the case of `O=C(N[C@H]1CC[C@H](OCCC(F)(F)F)CC1)c1nc(-n2ccnc2)cc2cn[nH]c12` [Example 249, 5-(1H-imidazol-1-yl)-N-((1r,4r)-4-(3,3,3-trifluoropropoxy)cyclohexyl)-1H-pyrazolo[3,4-c]pyridine-7-carboxamide], the IC50 is reported as under 10 nM. `CN(C)CCOc1ccc(NC(=O)c2nc(-n3ccnc3)nc3ccsc23)cn1` [Example 151] gave an IC50 of under 10 nM. In the case of `C[C@]1(NCC(F)(F)F)CC[C@@H](NC(=O)c2nc(-n3ccnc3)nc3cn[nH]c23)CC1` [Example 274, 5-(1H-imidazol-1-yl)-N-((1s,4s)-4-methyl-4-((2,2,2-trifluoroethyl)amino)cyclohexyl)-1H-pyrazolo[4,3-d]pyrimidine-7-carboxamide], the IC50 is reported as 10 to 100 nM. `C[C@]1(O)CC[C@H](NC(=O)c2nc(-n3ccnc3)nc3cc[nH]c23)CC1` [Example 176] was tested, and the IC50 was 10 to 100 nM. In the case of `C[C@H](O)[C@H]1CC[C@H](NC(=O)c2nc(-n3ccnc3)cc3ccsc23)CC1` [Example 264b, N-((1S,4r)-4-((S)-1-hydroxyethyl)cyclohexyl)-5-(1H-imidazol-1-yl)thieno[2,3-c]pyridine-7-carboxamide], the IC50 is reported as 10 to 100 nM. With `O=C(Nc1ccc(OCCN2CC3(COC3)C2)nc1)c1nc(-n2ccnc2)cc2cn[nH]c12` [Example 230, N-(6-(2-(2-oxa-6-azaspiro[3.3]heptan-6-yl)ethoxy)pyridin-3-yl)-5-(1H-imidazol-1-yl)-1H-pyrazolo[3,4-c]pyridine-7-carboxamide] the IC50 was 10 to 100 nM. Molecule `O=C(Nc1ccc(OCCN2CCOCC2)nc1)c1nc(-n2ccnc2)nc2cc[nH]c12` [Example 145] has an IC50 of under 10 nM. `CC(C)(N[C@H]1CC[C@@H](NC(=O)c2nc(-n3ccnc3)cc3cn[nH]c23)CC1)C(F)F` [Example 254, N-((1s,4s)-4-((1,1-difluoro-2-methylpropan-2-yl)amino)cyclohexyl)-5-(1H-imidazol-1-yl)-1H-pyrazolo[3,4-c]pyridine-7-carboxamide] showed an IC50 of 100 to 1000 nM. Molecule `CN(CC(F)(F)F)[C@H]1CC[C@@H](NC(=O)c2nc(-n3ccnc3)nc3cc[nH]c23)CC1` [Example 113, 2-(1H-imidazol-1-yl)-N-((1s,4s)-4-(methyl(2,2,2-trifluoroethyl)amino)cyclohexyl)-5H-pyrrolo[3,2-d]pyrimidine-4-carboxamide] has an IC50 of 10 to 100 nM. Molecule `O=C(N[C@H]1CC[C@H](NCC(F)F)CC1)c1nc(-n2ccnc2)cc2ccsc12` [Example 261, N-((1r,4r)-4-((2,2-difluoroethyl)amino)cyclohexyl)-5-(1H-imidazol-1-yl)thieno[2,3-c]pyridine-7-carboxamide] has an IC50 of under 10 nM. `O=C(Nc1cccc(Cl)n1)c1nc(-n2ccnc2)nc2cc[nH]c12` [Example 144] showed an IC50 of under 10 nM. `O=C(NC1CCC(F)(F)CC1)c1nc(-n2ccnc2)nc2nc[nH]c12` [Example 152] showed an IC50 of 10 to 100 nM. `COCCO[C@H]1CC[C@H](NC(=O)c2nc(-c3cn[nH]n3)nc3cc[nH]c23)CC1` [Example 35, N-((1r,4r)-4-(2-Methoxyethoxy)cyclohexyl)-2-(2H-1,2,3-triazol-4-yl)-5H-pyrrolo[3,2-d]pyrimidine-4-carboxamide] gave an IC50 of over 1000 nM. For `CC(=O)NC[C@H]1CC[C@H](NC(=O)c2nc(-n3ccnc3)nc3cc[nH]c23)CC1` [Example 114, N-((1r,4r)-4-(acetamidomethyl)cyclohexyl)-2-(1H-imidazol-1-yl)-5H-pyrrolo[3,2-d]pyrimidine-4-carboxamide], the IC50 was under 10 nM. Work on `O=C(N[C@H]1CC[C@H](C(F)(F)F)CC1)c1nc(-n2ccnc2)nc2nc[nH]c12` [Example 147] yielded an IC50 of 10 to 100 nM. For `O=C(NCCC(F)F)c1nc(-n2ccnc2)cc2cn[nH]c12` [Example 245, N-(3,3-difluoropropyl)-5-(1H-imidazol-1-yl)-1H-pyrazolo[3,4-c]pyridine-7-carboxamide], the IC50 was 10 to 100 nM. Molecule `CC(C)(O)[C@H]1CC[C@H](NC(=O)c2nc(-n3ccnc3)nc3cc[nH]c23)CC1` [Example 139] has an IC50 of 10 to 100 nM. With `CC(C)[C@@H](O)CO[C@H]1CC[C@H](NC(=O)c2nc(-n3ccnc3)nc3cc[nH]c23)CC1` (single isomer, unassigned) [Example 119a] the IC50 was 10 to 100 nM.

These molecules were tested on B16-F10 tumor (assay: Efficacy study in a B16F10 model (survival)). Details: Example 7 300 mg/kg p.o. QD in combination with anti-mPD-L1 10 mg/kg i.p. QW; over vehicle or anti-mPD-L1 treated mice; p value <0.0001.
Format: in vivo, C57BL/6 mouse
Experimental: B16-F10 tumor cells (ATCC, Cat #CRL-6475) were maintained in vitro as a monolayer culture in DMEM medium (Gibco, Cat #11995-040) supplemented with 10% heat inactivated fetal bovine serum (Biological Industries, Cat #04-002-1A), 100 U/mL penicillin and 100 µg/mL streptomycin (Hyclone, Cat #SV30010) at 37° C. in an atmosphere of 5% CO2 in air. The tumor cells were routinely subcultured twice weekly by trypsin-EDTA (Gibco, Cat #25200-072) treatment. The cells growing to a confluency around 70%-80% were harvested and counted for tumor inoculation. The cultured B16-F10 cells were harvested, re-suspended in base medium at a density of 2×10^7 cells/mL with viability>90%. 6-8 weeks of Female C57BL/6 mouse (Shanghai LingChang Biotech Co., LTD) was inoculated subcutaneously at the right flank with 1×10^6 in 0.05 mL base medium for tumor development. Tumors were calipered in two dimensions to monitor growth as the mean volume approached the desired range. Tumor volume (TV) was calculated using the formula: TV=0.5 a×b2 where a and b are the long and short diameters of the tumor.
Mice were assigned into 4 groups with 12 mice per group. […] The tumor sizes were measured three times per week during the treatment. Survival was monitored with tumor volume exceeding 2000 mm3 as endpoint. […]
In the case of `COCCO[C@H]1CC[C@H](NC(=O)c2nc(-n3ccnc3)nc3cc[nH]c23)CC1` [Example 7, 2-(1H-Imidazol-1-yl)-N-((1r,4r)-4-(2-methoxyethoxy)cyclohexyl)-5H-pyrrolo[3,2-d]pyrimidine-4-carboxamide], the “percent survival of B16-F10 tumor bearing mice” value is reported as “significant survival benefit”.
